Where two headings read alike, the source gives them in different places.
Columns and labels:
[1] = tested on: smallflower umbrella sedge; assay: Test C flooded paddy test; assay type: in vivo, Cyperus difformis; details: for pest or weed control at 62 g/ha / pest or weed control at 125 g/ha / pest or weed control at 250 g/ha / pest or weed control at 500 g/ha: Cyperus difformis; for pest or weed control at 62 g/ha / pest or weed control at 125 g/ha / pest or weed control at 250 g/ha: read-out: Sedge, Umbrella plant response rating; for pest or weed control at 500 g/ha / Plant response rating, Sedge, Umbrella: 500 g ai/ha, visual rating after 12 to 14 days; for pest or weed control at 500 g/ha: read-out: Plant response rating, Sedge, Umbrella
[2] = tested on: rice; assay: Test B pre-/postemergence herbicide test; assay type: in vivo, Oryza sativa; details: for plant injury at 125 g/ha / plant injury at 500 g/ha: Oryza sativa, pre-emergence, 336 h
Procedure, shortened: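 Visual rating, 0 (no effect) to 100 (complete control), versus untreated controls after 13–15 d in greenhouse. Pre- and postemergence applications (postemergence plants 2–18 cm, 1–4 leaves); flooded paddy arm at 2-leaf stage. Compounds in non-phytotoxic solvent plus surfactant.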

[3] = tested on: morningglory; assay: Test A pre-/postemergence herbicide test; assay type: in vivo, Ipomoea spp.; details: for pest or weed control at 500 g/ha / pest or weed control at 2000 g/ha: Ipomoea, 240 h
Procedure, shortened: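 Sandy loam soil given preemergence directed spray; plants at 2 to 10 cm, one- to two-leaf stage, sprayed to runoff postemergence, compounds in non-phytotoxic solvent with surfactant. Injury rated visually versus untreated controls after about ten greenhouse days, 0 (no effect) to 100 (complete control); dash means not tested.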

[4] = tested on: soybean; assay: Test C pre-/postemergence herbicide test; assay type: in vivo, Glycine max; details: for Soybean plant response rating: 500 g ai/ha
Procedure, shortened: (§1)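 Preemergence: seeds planted and treated with compound in non-phytotoxic solvent with surfactant; postemergence: plants at 2 to 18 cm (1- to 4-leaf stage) sprayed likewise. Kept in greenhouse 12 to 14 days, then visually rated against controls, 0 (no effect) to 100 (complete control).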

[5] = tested on: bermudagrass; assay: Test C pre-/postemergence herbicide test; assay type: in vivo, Cynodon dactylon
Procedure, shortened: as §1

[6] = tested on: kochia; assay: Test C pre-/postemergence herbicide test; assay type: in vivo, Kochia scoparia; details: for Kochia plant response rating: 500 g ai/ha
Procedure, shortened: as §1

[7] = tested on: goosegrass; assay: Test C pre-/postemergence herbicide test; assay type: in vivo, Eleusine indica; details: for Goosegrass plant response rating: 500 g ai/ha
Procedure, shortened: as §1

[8] = tested on: giant foxtail; assay: Test C pre-/postemergence herbicide test; assay type: in vivo, Setaria faberi; details: for Foxtail, Giant plant response rating: 500 g ai/ha
Procedure, shortened: as §1

[9] = tested on: morningglory; assay: Test C pre-/postemergence herbicide test; assay type: in vivo, Ipomoea coccinea; set-up: key to Plant response rating, Morningglory: 0 = no effect, 100 = complete control; details: for Morningglory plant response rating: 500 g ai/ha
Procedure, shortened: as §1

[10] = 62 g ai/ha, scale 0 to 100 (0 no effect, 100 complete control)
[11] = 125 g ai/ha, scale 0 to 100 (0 no effect, 100 complete control)
[12] = 250 g ai/ha, scale of 0 to 100, 0 is no effect, 100 is complete control
[13] = scale 0 to 100 (0 no effect, 100 complete control)
[14] = 125 g ai/ha, 0 = no effect, 100 = complete control, read-out: Rice plant response rating (0 to 100 scale)
[15] = 500 g ai/ha, visual rating, 0 = no effect, 100 = complete control, read-out: Plant response rating, Rice
[16] = Postemergence, 500 g ai/ha, 0 to 100 scale, 0 no effect, 100 complete control
[17] = Postemergence, 2000 g ai/ha, 0 to 100 scale, 0 no effect, 100 complete control
[18] = Preemergence, 500 g ai/ha, visual rating, 0 to 100 scale (0 no effect, 100 complete control)
[19] = Preemergence, 2000 g ai/ha, 0 to 100 scale, 0 no effect, 100 complete control
[20] = Postemergence, 250 g ai/ha, scale 0 to 100, 0 no effect, 100 complete control
[21] = postemergence, 125 g ai/ha, scale 0 to 100
[22] = postemergence, 62 g ai/ha, scale 0 to 100
[23] = preemergence, 125 g ai/ha, 0 to 100 scale, 0 is no effect, 100 is complete control
[24] = 500 g ai/ha, visual rating, 0 = no effect, 100 = complete control, preemergence
[25] = 125 g ai/ha, scale of 0 to 100, 0 is no effect, 100 is complete control
[26] = Preemergence, 2000 g ai/ha, visual rating, 0 to 100 scale (0 no effect, 100 complete control)
[27] = preemergence, 500 g ai/ha, visual injury, 0 to 100 scale (0 no effect, 100 complete control)
[28] = 125 g ai/ha, 0 = no effect, 100 = complete control, preemergence

CCn1nc(C(C)(C)C)cc1C(=O)Nc1ccc(F)c(C(=O)N(C)C)c1 [Compound 236, N-[3-[(dimethylamino)carbonyl]-4-fluorophenyl]-3-(1,1-dimethylethyl)-1-ethyl-1H-pyrazole-5-carboxamide]
pest or weed control at 62 g/ha [1, 10]: 0% | pest or weed control at 125 g/ha [1, 11]: 20% | pest or weed control at 250 g/ha [1, 12]: 45% | pest or weed control at 500 g/ha [1, 13]: 55% | plant injury at 125 g/ha [2, 14]: 40% | plant injury at 500 g/ha [2, 15]: 60%

C=CCOC(=O)c1cccc(NC(=O)c2cc(C(C)(C)C)nn2CC)c1 [Compound 85]
Morningglory plant response rating [3, 16]: 20 | Plant response rating, Morningglory [3, 17]: 25 | Morningglory plant response rating [3, 18]: 0 | Morningglory plant response rating [3, 19]: 5 | Soybean plant response rating ([4]; Postemergence, scale 0 to 100): 95 | Plant response rating, Soybean [4, 20]: 80 | Plant response rating, Soybean [4, 21]: 60 | Plant response rating, Soybean [4, 22]: 55 | Bermudagrass plant response rating ([5]; Postemergence, 500 g ai/ha, scale 0 to 100): 70 | Plant response rating, Bermudagrass [5, 21]: 65 | Plant response rating, Bermudagrass [5, 22]: 0 | Kochia plant response rating ([6]; Postemergence, scale 0 to 100): 90 | Plant response rating, Kochia [6, 20]: 90 | Plant response rating, Kochia [6, 21]: 60 | Plant response rating, Kochia [6, 22]: 20 | Plant response rating, Rice [2, 23]: 0 | Goosegrass plant response rating ([7]; Postemergence, scale 0 to 100): 60 | Plant response rating, Goosegrass [7, 20]: 60 | Plant response rating, Goosegrass [7, 21]: 40 | Plant response rating, Goosegrass [7, 22]: 35 | Foxtail, Giant plant response rating ([8]; Postemergence, scale 0 to 100): 70 | Plant response rating, Foxtail, Giant [8, 20]: 50 | Plant response rating, Foxtail, Giant [8, 21]: 20 | Plant response rating, Foxtail, Giant [8, 22]: 10 | Morningglory plant response rating ([9]; Postemergence, scale 0 to 100): 80 | Plant response rating, Morningglory [9, 20]: 60 | Plant response rating, Morningglory [9, 21]: 40 | Plant response rating, Morningglory [9, 22]: 10

C#CCOC(=O)c1cccc(NC(=O)c2cc(C(C)(C)C)nn2CC)c1 [Compound 84]
Morningglory plant response rating [3, 16]: 5 | Plant response rating, Morningglory [3, 17]: 10 | Morningglory plant response rating [3, 18]: 0 | Soybean plant response rating ([4]; Postemergence, scale 0 to 100): 20 | Plant response rating, Soybean [4, 20]: 20 | Plant response rating, Soybean [4, 21]: 0 | Plant response rating, Soybean [4, 22]: 0 | Plant response rating, Bermudagrass [5, 20]: 0 | Kochia plant response rating ([6]; Postemergence, scale 0 to 100): 80 | Plant response rating, Kochia [6, 20]: 10 | Plant response rating, Kochia [6, 21]: 0 | Plant response rating, Kochia [6, 22]: 0 | Plant response rating, Rice [2, 23]: 0 | Goosegrass plant response rating ([7]; Postemergence, scale 0 to 100): 10 | Plant response rating, Goosegrass [7, 20]: 5 | Plant response rating, Goosegrass [7, 21]: 0 | Plant response rating, Goosegrass [7, 22]: 0 | Foxtail, Giant plant response rating ([8]; Postemergence, scale 0 to 100): 0 | Plant response rating, Foxtail, Giant [8, 20]: 0 | Plant response rating, Foxtail, Giant [8, 21]: 0 | Plant response rating, Foxtail, Giant [8, 22]: 0 | Morningglory plant response rating ([9]; Postemergence, scale 0 to 100): 0 | Plant response rating, Morningglory [9, 20]: 0 | Plant response rating, Morningglory [9, 21]: 0 | Plant response rating, Morningglory [9, 22]: 0

CCOC(=O)c1ccc(F)c(NC(=O)c2cc(C3(C)CC3)nn2CC)c1 [Compound 296]
Sedge, Umbrella plant response rating ([1]; 62 g ai/ha, scale 0 to 100): 75 | Sedge, Umbrella plant response rating [1, 11]: 75 | Sedge, Umbrella plant response rating [1, 12]: 75 | Plant response rating, Sedge, Umbrella [1, 13]: 85 | Plant response rating, Rice [2, 24]: 40

CCn1nc(C(C)(C)C)cc1C(=O)Nc1cc(C(=O)OC)ccn1 [Compound 151, methyl 2-[[[3-(1,1-dimethylethyl)-1-ethyl-1H-pyrazol-5-yl]carbonyl]amino]-4-pyridinecarboxylate]
pest or weed control at 500 g/ha ([3]; post-emergence, Postemergence, 500 g ai/ha, 0 to 100 scale, 0 no effect, 100 complete control, read-out: Morningglory plant response rating): 10% | pest or weed control at 2000 g/ha ([3]; post-emergence, Postemergence, 2000 g ai/ha, 0 to 100 scale, 0 no effect, 100 complete control, read-out: Plant response rating, Morningglory): 20% | pest or weed control at 500 g/ha ([3]; pre-emergence, Preemergence, 500 g ai/ha, visual rating, 0 to 100 scale (0 no effect, 100 complete control), read-out: Morningglory plant response rating): 0% | pest or weed control at 2000 g/ha ([3]; pre-emergence, Preemergence, 2000 g ai/ha, visual rating, 0 to 100 scale (0 no effect, 100 complete control), read-out: Morningglory plant response rating): 0% | plant injury at 500 g/ha ([2]; 500 g ai/ha, visual rating 0-100, 0 no effect, 100 complete control, read-out: Plant response rating, Rice): 0% | plant injury at 125 g/ha ([2]; preemergence, 125 g ai/ha, 0 to 100 scale, 0 is no effect, 100 is complete control, read-out: Plant response rating, Rice): 0%

CCn1nc(C(C)(C)C)cc1C(=O)Nc1cccc(C(=O)NOC)c1 [Compound 67]
Sedge, Umbrella plant response rating [1, 10]: 50 | Sedge, Umbrella plant response rating [1, 25]: 50 | Sedge, Umbrella plant response rating [1, 12]: 75 | Plant response rating, Sedge, Umbrella [1, 13]: 75 | Plant response rating, Morningglory [3, 16]: 5 | Plant response rating, Morningglory [3, 17]: 20 | Morningglory plant response rating [3, 18]: 0 | Morningglory plant response rating [3, 19]: 30 | Plant response rating, Rice [2, 23]: 0

CCn1nc(C(C)(C)C)cc1C(=O)Nc1cccc(C(=O)N2CC=CC2)c1 [Compound 286]
Sedge, Umbrella plant response rating ([1]; 62 g ai/ha, scale 0 to 100): 30 | Sedge, Umbrella plant response rating [1, 11]: 70 | Sedge, Umbrella plant response rating [1, 12]: 90 | Plant response rating, Sedge, Umbrella [1, 13]: 90 | Morningglory plant response rating [3, 16]: 20 | Plant response rating, Morningglory [3, 17]: 35 | Morningglory plant response rating [3, 26]: 40 | Morningglory plant response rating [3, 27]: 30 | Rice plant response rating (0 to 100 scale) [2, 28]: 30 | Plant response rating, Rice [2, 24]: 80

CCNC(=O)c1cc(NC(=O)c2cn(C(C)(C)C)nc2CC)ccc1F [Compound 241, 1-(1,1-dimethylethyl)-3-ethyl-N-[3-[(ethylamino)carbonyl]-4-fluorophenyl]-1H-pyrazole-4-carboxamide]
pest or weed control at 62 g/ha [1, 10]: 0% | pest or weed control at 125 g/ha [1, 11]: 0% | pest or weed control at 250 g/ha [1, 12]: 55% | pest or weed control at 500 g/ha [1, 13]: 85% | plant injury at 125 g/ha [2, 14]: 0% | plant injury at 500 g/ha [2, 15]: 80%

C=CCn1nc(C(C)(C)C)cc1C(=O)Nc1cccc(C(C)=NO)c1 [Compound 117]
Sedge, Umbrella plant response rating [1, 10]: 40 | Sedge, Umbrella plant response rating [1, 25]: 55 | Sedge, Umbrella plant response rating [1, 12]: 75 | Plant response rating, Sedge, Umbrella [1, 13]: 80 | Morningglory plant response rating [3, 16]: 20 | Plant response rating, Morningglory [3, 17]: 70 | Morningglory plant response rating [3, 18]: 45 | Morningglory plant response rating [3, 26]: 75 | Plant response rating, Rice [2, 23]: 20

CCn1nc(C(C)(C)C)cc1C(=O)Nc1cccc(OC(C)C)c1 [Compound 273]
Sedge, Umbrella plant response rating ([1]; 62 g ai/ha, scale 0 to 100): 70 | Sedge, Umbrella plant response rating [1, 11]: 75 | Sedge, Umbrella plant response rating [1, 12]: 75 | Plant response rating, Sedge, Umbrella [1, 13]: 75 | Morningglory plant response rating [3, 16]: 70 | Plant response rating, Morningglory [3, 17]: 75 | Morningglory plant response rating [3, 26]: 80 | Morningglory plant response rating [3, 27]: 45 | Rice plant response rating (0 to 100 scale) [2, 28]: 0 | Plant response rating, Rice [2, 24]: 40

From patent publication US20060069132A1, “Azolecarboxamide herbicides” (priority 2004, published 2006)
